Source: US7211589B2, “Atisane compounds and use thereof” (Eisai R&D Management Co., Ltd., priority 2001, dated 2007)

Key:
[1] = system: cultured cerebral cortex cells; assay: Effect on glutamate-induced neurotoxicity of cultured cerebral cortex cell (trypan blue survival); type: cell-based; details: test substance 10 μM, 1 h pre-incubation, then glutamic acid 500 μM for 1 h; percentage of living (trypan blue unstained) cells; sham 88.79, glutamic acid alone 26.72
Method: Effect of Atisane Derivative on Glutamate-induced Neurotoxicity of Cultured Cerebral Cortex Cell
Effects of the compounds according to the present invention on survival of cells were studied in the following manners.
(1) After dissolving the compound according to the present invention (test compound) in a small amount of methanol, 2.0 mL serum-free normal medium (Eagle's MEM medium raw powder 9.4 g; NaHCO3 2.0 g; L-glutamine 0.29 g; glucose 1.0 g; and HEPES 2.38 g are dissolved in purified water so that the final volume is 1000 mL) was added so as to make the concentration at 10 μM. After mixing well by vortex, the sample was used for the following bioassay. (2) In Eagle liquid at 37° C., cultured cerebral cortex cells were incubated in the medium containing the test sample (1) for 1 hour, and glutamic acid was added to the medium. After incubating for another 1 hour, the culture was stained with 1.5% trypan blue solution for 10 minutes. […] Using this property, in the present test, the number of cells were counted while determining the cells not having stained by trypan blue as living cells and the cells […] as dead cells. […] More than 200 cells were counted per one cover slip, and a percentage of number of living cells with respect to the total number of counted cells was calculated as survival. […]

[2] = system: cultured cerebral cortex cells; assay: Effect on nitrogen monoxide (NO)-induced neurotoxicity of cultured cerebral cortex cell (trypan blue survival); type: cell-based; details: test substance 10 μM simultaneously with S-nitrosocysteine 100 μM; percentage of living cells; sham 91.92, S-nitrosocysteine alone 17.30
Method: Effect of Atisane Derivative on Nitrogen Monoxide (NO)-induced Neurotoxicity of Cultured Cerebral Cortex Cell
(1) After dissolving the compound according to the present invention (test compound) in a small amount of methanol, 2.0 mL serum-free normal medium (Eagle's MEM medium raw powder 9.4 g; NaHCO3 2.0 g; […]; glucose 1.0 g; and HEPES 2.38 g are dissolved in purified water so that the final volume is 1000 mL) was added to make the concentration at 10 μM. After mixing well by vortex, the sample was used for the following bioassay. (2) In Eagle liquid at 37° C., cultured cerebral cortex cells were incubated in the medium containing S-nitrosocysteine for 1 hour. At this time, the test sample (1) was treated simultaneously with S-nitrosocysteine. After incubating for another 1 hour, the culture was stained with 1.5% trypan blue solution for 10 minutes. After completion of the staining, cells were fixed in ice-cooled 10% neutral-buffered formalin solution, rinsed with saline, and numbers of living cells and dead cells were counted. The test was conducted using 5 cover slips for every drug treatment, and one group contained 5 cases. More than 200 cells were counted per one cover slip, and a percentage of number of living cells with respect to the total number of counted cells was calculated as survival. (3) Results

Compound C[S+]([O-])C[C@H]1[C@H]2CC[C@@]3(CC[C@H]4[C@@](C)(CCC[C@@]4(C)C(=O)O)[C@@H]3C2)[C@@H]1O (mixture of isomers) [Serofendic acid isomers (1), (2) (approx. 1:2) mixture, ent-15β-Hydroxy-17-methylsulfinyl-16α-atisane-19-oic acid] has a Survival of cell [1] of 65.92% and a Survival of cell [2] of 76.02%.
